# pEC50: −log10 of the molar value.
# Molecular target: T1, human FSH receptor (Homo sapiens, UniProt P23945)
# T1 sequence (P23945 18-695): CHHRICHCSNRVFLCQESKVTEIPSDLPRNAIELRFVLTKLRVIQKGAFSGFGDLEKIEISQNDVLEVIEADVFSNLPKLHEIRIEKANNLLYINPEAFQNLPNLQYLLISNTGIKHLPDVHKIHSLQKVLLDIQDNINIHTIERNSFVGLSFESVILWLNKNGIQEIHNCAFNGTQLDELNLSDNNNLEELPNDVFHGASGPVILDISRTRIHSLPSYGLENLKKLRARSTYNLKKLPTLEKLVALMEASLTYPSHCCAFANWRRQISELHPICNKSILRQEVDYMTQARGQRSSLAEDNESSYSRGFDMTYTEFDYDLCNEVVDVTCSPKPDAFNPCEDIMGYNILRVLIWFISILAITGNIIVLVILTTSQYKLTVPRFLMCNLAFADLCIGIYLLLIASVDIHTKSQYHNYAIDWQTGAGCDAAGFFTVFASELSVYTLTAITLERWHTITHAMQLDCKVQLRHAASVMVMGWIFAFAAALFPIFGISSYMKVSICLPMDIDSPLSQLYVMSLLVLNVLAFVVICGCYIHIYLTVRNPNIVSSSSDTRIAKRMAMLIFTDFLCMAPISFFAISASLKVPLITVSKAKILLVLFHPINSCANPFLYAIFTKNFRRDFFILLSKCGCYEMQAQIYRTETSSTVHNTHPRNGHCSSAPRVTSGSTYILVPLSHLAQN
# Assay: Agonistic activity at the human FSH receptor expressed in CHO cells (CRE-luciferase reporter)
# Text: The term EC50 means the concentration of the test compound that elicits half-maximal (50%) stimulation compared to the compound's maximally attainable effect. pEC50 is the negative log of EC50. The values can be determined e.g. in a cell line transfected with a FSH receptor gene and cotransfected with a cAMP responsive element/promoter directing the expression of a reporter gene. For the determination a software program such as MathIQ (version 2.0, ID Business Solutions Limited) can be used.
# Agonistic activity of the compounds at the human FSH receptor was determined in Chinese Hamster Ovary (CHO) cells stably transfected with the human FSH receptor and cotransfected with a cAMP responsive element (CRE)/promotor directing the expression of a firefly luciferase reporter gene. […] Cells (7,500 cells/well of a 384 well plate) were incubated in Dulbecco' minimal essential F12 modified medium (Invitrogen), supplemented with 1 μg/ml bovine insulin, 5 μg/ml human apo-transferrin, 80 U/ml penicillin G and 80 μg/ml streptomycin with the test compounds (concentration between 0.0316 nM and 10.0 μM) in duplicate in a humidified atmosphere (95%) at 5-7% CO2 and 37° C. The final concentration of DMSO was 1%. After 4 hours of incubation, plates were allowed to adjust to room temperature for 1 hour. Then, Luclite (PerkinElmer) solution was added to the wells and cells were allowed to lyse for at least 1 hour at room temperature. Subsequently, luciferase activity was measured in a luminescence counter. The signal is expressed as counts per second (cps). The EC50 (concentration of the test compound that elicits half-maximal (50%) luciferase stimulation compared to the compound's maximally attainable effect) and efficacy values (maximal effect of the test compound as percentage of the maximal effect of recombinant human FSH) of the compounds were determined using the software program MathIQ (version 2.0, ID Business Solutions Limited).
row,pEC50,Compound
1,> 7.00,"COc1cc2c(cc1OC(C)C)-c1c(c(C(=O)N(C)C(C)(C)C)nn1-c1cccs1)CC2 [Example 5b, N-tert-butyl-8-isopropoxy-7-methoxy-N-methyl-1-(thiophen-2-yl)-4,5-dihydro-1H-benzo[g]indazole-3-carboxamide]"
2,> 7.00,"COc1cc2c(cc1OC(C)C)-c1c(c(C(=O)N(C)C(C)(C)C)nn1-c1ccsc1)CC2 [Example 2h, N-tert-butyl-8-isopropoxy-7-methoxy-N-methyl-1-(thiophen-3-yl)-4,5-dihydro-1H-benzo[g]indazole-3-carboxamide]"
3,> 7.00,"COc1cc2c(cc1OC(C)C)-c1c(c(C(=O)N3CCCN(C(=O)C4CCC4)CC3)nn1-c1ccsc1)CC2 [Example 2g, (4-(cyclobutanecarbonyl)-1,4-diazepan-1-yl)(8-isopropoxy-7-methoxy-1-(thiophen-3-yl)-4,5-dihydro-1H-benzo[g]indazol-3-yl)methanone]"
4,> 7.00,"COc1cc2c(cc1-c1cccnc1)-c1c(c(C(=O)N(C)C(C)(C)C)nn1-c1ccccc1Cl)CC2 [Example 11gb, N-tert-butyl-1-(2-chlorophenyl)-7-methoxy-N-methyl-8-(pyridin-3-yl)-4,5-dihydro-1H-benzo[g]indazole-3-carboxamide]"
5,> 7.00,"COc1cc2c(cc1OC(C)C)-c1c(c(C(=O)N3CCCN(C(C)=O)CC3)nn1-c1ccc(F)cc1)CC2 [Example 3c, 1-(4-(1-(4-fluorophenyl)-8-isopropoxy-7-methoxy-4,5-dihydro-1H-benzo[g]indazole-3-carbonyl)-1,4-diazepan-1-yl)ethanone]"
6,> 7.00,"COc1cc2c(cc1OC(C)C)-c1c(c(C(=O)N3CCCN(C(=O)C4CCC4)CC3)nn1-c1ccc(F)cc1)CC2 [Example 3d, (4-(cyclobutanecarbonyl)-1,4-diazepan-1-yl)(1-(4-fluorophenyl)-8-isopropoxy-7-methoxy-4,5-dihydro-1H-benzo[g]indazol-3-yl)methanone]"
